The text below walks through data of patent US20260242874A1, “METHOD OF PREDICTING RESPONSE TO TREATMENT” (LINNANE PHARMA AB, priority 2023, published 2026).

For test [1], the system named is non-muscle invasive bladder cancer tumors. As to the kind of experiment: Tumor histopathology of biopsies. Type of test: in vivo, human. Particulars: treated tumors compared to the placebo group. From the text: The tumor response was further evaluated by histopathology. […] A complete response was confirmed by a lack of tumor tissue in the control biopsy or presence of minor residual tissue stroma without tumor cells. In the partial responders, fragmentation and cell shedding left few intact papilli and the tissue surface appeared denuded. In addition, tumor tissue surrounding the target lesion was affected in the responding patients, including satellite tumors, which had disappeared.
Tumor biopsies, collected at the time of surgery were evaluated by histopathology, using established parameters for scoring of Grade and Stage/Invasiveness. Tissue samples were analyzed by a designated study uro-pathologist. Both grading classifications (WHO 1973 and 2004/2016) were used. Biopsies from healthy tissue areas distant from the tumor were collected for comparison.

Another test has as its system bladder tumor cells. Briefly: Cell shedding into urine after intravesical instillation. Type of test: in vivo, human. How it is done:
Intravesical alpha1-oleate instillations triggered a rapid tumor response, which was quantified by comparing the pre-instillation sample in each patient to the first urine sample obtained post instillation (≤2 hours).
To quantify the shedding of cells and cell clusters into the urine, samples were obtained from each patient prior to and after each instillation of alpha1-oleate or placebo (Visit 1-Visit 6). Cell shedding was quantified by counting the total number of epithelial cells in a unit of uncentrifuged urine under light microscopy, using a hemocytometer chamber. Changes in cell shedding were quantified at each visit, by comparing cell numbers in samples obtained before and after each instillation. The cell clusters were scored based on the examination of these samples by an experienced pathologist on a range of 0-2 where 0=no clusters and 2=the highest number of clusters.

A further test has as its system shed bladder tumor cells. Briefly: DNA strand breaks by TUNEL staining of shed cells. Format: in vivo, human. As to conditions: shed cells post-instillation vs pre-instillation, all treated patients. How it is done: Double strand DNA breaks were quantified by TUNEL staining, comparing shed cells post alpha1-oleate instillation, to the pre-instillation samples.
DNA fragmentation was detected using the terminal deoxynucleotidyl transferase dUTP nick end-labelling (TUNEL) assay (Click-iT TUNEL Alexa Fluor 488 imaging assay kit, ThermoFisher). Tissue sections were de-paraffinized with xylene followed by serial dehydration with ethanol (100, 95, 75 and 50%). Dehydrated sections were fixed (4% PFA, 15 min), permeabilized (DNase-free Protease K solution 20 μg/mL, 15 min) and incubated with TUNEL reaction mixture containing TdT for 60 min at 37° C. After the TUNEL reaction, sections were incubated with Click-iT reaction mixture (30 min, 37° C.). Sections were counterstained with DAPI (1 μg/mL, 5 minutes), mounted in Fluoromount aqueous mounting media, and analyzed by fluorescence microscopy (Zeiss). Fluorescence intensities were quantified by ImageJ and net mean fluorescence intensity calculated after subtraction of background fluorescence.

In test [2] the test system is cancer related genes in bladder tumors. Briefly: Gene expression analysis (RNA sequencing) of tumors. Format: in vivo, human. From the text: The tumor response was characterized in greater detail by sequencing of RNA extracted from tumor tissue obtained at TURB and from biopsies obtained from adjacent tissue with a healthy appearance.
Individual tumors in patients treated with alpha1-oleate were defined as complete responders (CR), if the tumor was removed, partial responders (PR) if the tumor size was reduced, stable disease if the tumor size was unchanged (SD) or as non-responders, if the tumor size increased (Cut off=25% change in tumor size) (FIG. 1a). The effects of alpha1-oleate on gene expression were further examined for individual patients and tumors, using […], and differences were detected relative to the clinical treatment response of each tumor. By Principal component analysis (PCA FIG. 1b) the majority of responding tumors formed a cluster with a similar overall gene expression profile.
RNA was extracted from tissues stabilized in RNAlater using the AllPrep DNA/RNA/miRNA Universal Kit. Disruption was in the TissueLyser system and CK28 Precellys tubes and by homogenization in the QIAshredder homogenizer. The quantity and quality of the RNA samples were evaluated using NanoDrop and Agilent 2100 Bioanalyzer. RNA samples were prepared by Illumina TruSeq Stranded mRNA Library Prep Kit (20020594), and libraries were multiplexed and sequenced using NextSeq 500/550 High Output Kits (v2.5 2×75 Cycles) with an average of 22 million reads per sample. Raw sequencing data was demultiplexed using bcl2fastq (version 2.18) and RSEM (1.3) was used for abundance estimation using the human genome release 37/Ensemble 75. Samples were thoroughly QCed and visualized using dimensionality reduction (i.e PCA), MA-plots as well as RNA-seq intrinsic biases (such as GC bias, transcriptome complexity and alignment quality). Differential expression analysis was performed using R (version 3.4) and the packages limma and DESeq2. Fold change were calculated by comparing tumors in the treated to the placebo group. Relative expression levels were analyzed and genes with an absolute fold change >2.0 and P<0.05 were considered as differentially expressed. Heat-maps were constructed using the Gitools 2.1.1 software. Differentially expressed genes were functionally characterized using the Ingenuity Pathway Analysis version 57662101 (IPA, Qiagen) software.
In a clinical study from an ongoing randomized, placebo-controlled phase II trial in patients with non-muscle invasive bladder cancer (NMIBC), treatment with the tumor-killing peptide-lipid complex Alpha1-Hamlet, by instillations to the patients' bladders, has shown promising therapeutic effects. Tumor tissue samples of patients (obtained post-treatment at visit number 6) were analyzed.

The test system of another test is adiponectin. As to the kind of experiment: Adiponectin-ELISA of urine samples. Format: in vivo, human. As to conditions: treated patients vs placebo, P<0.001. How it is done: To investigate levels of adiponectin protein in the urine samples of patients, an Adiponectin-ELISA test (Proteintech) was performed. The signal (absorbance) values were measured at 480 nm and interpolated to concentration (pg/mL) values using a linear regression statistical analysis. […] Graph showing urine adiponectin levels in both groups, with samples taken pre Visit 1, post Visit 1, Post Visit 3 and Post Visit 6. Line show change in median urine adiponectin levels (FIG. 4). There was statistically significant positive correlation between number of cells (shed) in urine samples and measure adiponectin levels (P=0,002), using linear regression (FIG. 4). Statistical analysis was done in GraphPad Prism.
(In general: An ELISA detects its analyte on a solid surface through an enzyme-linked reagent.)

Another test relates to NMIBC. As to the kind of experiment: Overall tumor response in patients with NMIBC (clinical and molecular end points). Type of test: in vivo, human. The source says: Selecting relevant treatment end points is especially challenging for conditions where cure is elusive. New molecular tools may offer increased resolution of the disease response, to complement clinical observation and understand the potential of new drug candidates. This study used a combination of clinical and molecular tools to define the tumor response to alpha1-oleate in patients with NMIBC. In addition to the evaluation of the change in tumor size, the tumor response was defined by the shedding of tumor cells and fragments into the urine, by the uptake of alpha1-oleate by the tumor and by evidence of tumor cell specific apoptosis. Gene expression analysis of tumor RNA further identified interesting differences between the groups defined as CR, PR and NR by visual inspection.
After diagnosis and informed consent, the subjects received intra-vesical instillations of either alpha1-oleate or placebo on six occasions during one month preceding a scheduled transurethral resection (TURB). A safety follow-up was performed 52 days after the first instillation.

Test [3] concerns cancer related genes in bladder tumors. Briefly: Gene expression analysis (RNA sequencing) of tumors. Format: in vivo, human. As to conditions: log FC≤−0.10; individual tumors.
The next test deals with tumor cells. Particulars: cited from earlier work.
A further test relates to skin papillomas. As to conditions: topical application; cited from earlier work.
The subject of a further test is bladder cancer cells. As to conditions: local instillations; cited from earlier work.

In the case of “alpha1-oleate: tumor-killing peptide-lipid complex of the synthetic alpha1 peptide (aa 1-39 of human alpha-lactalbumin) and oleate”, the “tumor response by histopathology” value in test [1] is on record as “Significant changes”. Moreover, the “cell numbers in urine post instillation” value in the test with bladder tumor cells (at each visit compared to each pre-instillation sample) was “highly significant increase”. The cell shedding result with bladder tumor cells (first urine sample post instillation (≤2 hours)) is “detected in all patients”. For the same molecule, the “TUNEL staining (double strand DNA breaks)” value with shed bladder tumor cells is on record as “marked increase”. In addition, the “ADIPOQ gene expression FC” value in test [2] (8.5 mM treated patients compared to placebo treated patients, tumor tissue post-treatment at visit 6) is listed as −5353.7. Also, the “number of genes regulated (heat map analysis)” value in test [2] (RNA from tumor tissue obtained at TURB) is recorded as “over 3500”. For the same molecule, in test [2] (all treated tumors), the “PRAME log FC” value is recorded as not above −10 and the “PTPRT log FC” value is reported as not above −10. In addition, in [2] (in vivo), the EGR3 expression result is given as “strongly downregulated”; the “bladder cancer related genes” value is recorded as “strongly inhibited”; the “tumor microenvironment pathway genes (VEGFD, TGFB2, TGFB3, FGF1, FGF5, FGF7, FGF10, IGF1)” value was “downregulated”. In [2] (network analysis), the “ADIPOQ dependent molecules downregulated” value is on record as 66, the “ADIPOQ dependent molecules strongly regulated” value is given as 78 and the “ADIPOQ dependent molecules upregulated” value came out at 12. For the same molecule, the “inhibited genes that were bladder cancer related” value in test [2] (of the 297 inhibited genes) is recorded as 31/297. Also, the “innate immune response genes” value in test [2] (pathway analysis, cytokine storm signaling and G protein coupled receptor signaling) is reported as “strongly down-regulated”. Besides, the urine adiponectin levels result in the test on adiponectin is “significantly higher”. The “responders by tumor cell shedding, apoptosis and inhibition of cancer related genes” value in the test with NMIBC is listed as “all patients in this study were definable as responders”. Also, in test [3], the “number of genes strongly down-regulated in all treated tumors” value came to 297.

B1: HAMLET: human alpha-lactalbumin made lethal to tumor cells; complex of partially unfolded α-lactalbumin and oleic acid (protein, UniProt P00709 20-142, looked up)
Alpha-lactalbumin: KQFTKCELSQLLKDIDGYGGIALPELICTMFHTSGYDTQAIVENNESTEYGLFQISNKLWCKSSQVPQSRNICDISCDKFLDDDITDDIMCAKKILDIKGIDYWLAHKALCTEKLEQWLCEKL
modifications: oleic acid complex
For B1, in the test with tumor cells, the “tumoricidal activity in vitro” value is given as “kills many types of tumor cells”. The “effect on skin papillomas” value in the test with skin papillomas is on record as “removed or reduced skin papillomas”. Also, in the test with bladder cancer cells, the “effect on bladder cancer cells” value is recorded as “killed bladder cancer cells but not healthy cells in surrounding tissues” and the “effect on tumor size” value is recorded as “caused a reduction in tumor size”.

B2: BAMLET: complex made by mixing bovine alpha-lactalbumin with oleic acid (protein, UniProt P00711 20-142, looked up)
Alpha-lactalbumin: EQLTKCEVFRELKDLKGYGGVSLPEWVCTTFHTSGYDTQAIVQNNDSTEYGLFQINNKIWCKDDQNPHSSNICNISCDKFLDDDLTDDIMCVKKILDKVGINYWLAHKALCSEKLDQWLCEKL
modifications: oleic acid complex
For B2, the “effects on tumour cells compared with HAMLET” value in the test with tumor cells (Rammer et al. (2010)) is listed as “qualitatively similar effects”.
